# From patent US20190302102A1, “COMBINATION THERAPIES FOR TREATING BIPOLAR DISORDER, AND METHODS FOR USING THE SAME” (PsychNostics, LLC, priority 2016, published 2019)
# What was measured:
# [1] = system: whole blood cells from BD patients; assay: MPR™ (Membrane Potential Ratio) test, agents added to the test buffer in vitro; assay type: cell-based, human; conditions: 1 mM Li alone in EtOH test buffer, whole blood of BD patients
# Protocol: The present inventor developed a ratiometric assay to measure the ratio of the membrane potential called Membrane Potential Ratio (MPR™), using a reference buffer and a test buffer. […] The reference buffer may contain NaCl, CaCl2 and glucose at physiological concentrations. The buffering agent HEPES was also added to the buffer to maintain the pH. […] The test buffer may contain K^+ or no K^+. The membrane potentials were measured in both the buffers and the ratio of the MP in the test buffer to the MP in the reference buffer was designated the “Membrane Potential Ratio” (MPR™).
# The membrane potentials of whole blood cells can be measured using two different buffers in a plate reader. The mean MPR™ value is the ratio between the membrane potential of a patient's cells in the test buffer as the numerator and that in the reference buffer as the denominator (for example, determined by statistical analysis of multiple measurements, using the ANOVA and the multiple statistical regression analysis).
# As mentioned herein, MPR™ is the ratio between the membrane potential (MP) in the test buffer and that in the reference buffer. In these experiments, the reference buffer contained NaCl, CaCl2, glucose and HEPES, whereas the test buffer contained ethyl alcohol (EtOH) in addition to NaCl, CaCl2, glucose and HEPES. Lithium, inositol and carbachol were added to the test buffer in these experiments.
# Whole blood samples were obtained from BD patients, and a portion from each blood sample was suspended in the test buffer for 20 minutes, and a portion from each blood sample was suspended in the reference buffer for 20 minutes. After this incubation, the samples were centrifuged for five minutes, drained, then re-suspended in their respective buffer (test or reference buffer). These samples were then distributed in 96 well plates, and tested in a plate reader (FLx 800 manufactured by BioTek).
# BD patients = conditions: cited from earlier work
# BD patient = assay: Clinical case observation of tolerability (Example 4); assay type: in vivo, human; conditions: very low dosage, given for anxiety; person with BD
# Text: At the time of their first blood draw, they reported having been off of their medications for BD for one month, but had not become clinically symptomatic, and tested in the BD range (“(Before)” of FIG. 4). When retested, they had been taking lithium, quetiapine, and mirtazapine for some time and had been back at work. […] Subsequently, they reported anxiety, occurring while they continued taking lithium, quetiapine, and mirtazapine. They thought they might be experiencing a return of bipolar symptomatology, but this was determined to possibly be situational instead. They had some awareness of issues with their fiancé and this awareness was “bolstered” by the notion that their MPR™ test had been in the normal range on their medication regimen not so many months before. […] They wanted a medication to help their through what they were experiencing, but could not be given benzodiazepines because of a history of difficulty with alcohol. Very low dosage perphenazine was given, in keeping with its old indication for neurotic anxiety.
# [2] = blood plasma; Freudenreich et al. 2009; cited from earlier work
smiles,measurement,setting,value
"[Li] [Li, lithium]",MPR™ value,"[1]; Example 1, FIG. 1",0.814
same,MPR™ value,"[1]; Example 2, FIG. 2",0.757
same,MPR™ value,"[1]; Example 3, FIG. 3",0.780
same,side effects at the therapeutic level,BD patients; at therapeutic concentration of 1.2 mM,"nausea, diarrhea, dizziness, muscle weakness, fatigue, and a dazed feeling"
same,therapeutic level,BD patients; lithium level in BD therapy,around 1.2 mM
same,toxic level,BD patients; lithium level in BD therapy,about 2 mM
OCCN1CCN(CCCN2c3ccccc3Sc3ccc(Cl)cc32)CC1 [perphenazine],Side effect leading to discontinuation,BD patient,blurred vision
CN1CCN(C2=Nc3cc(Cl)ccc3Nc3ccccc32)CC1 [clozapine],presently used therapeutic levels,[2],200 to 1000 ng/mL
